Patent publication US12458605B2, “Lipid nanoparticle” (National University Corporation Hokkaido University, priority 2020, dated 2025)

Tests used:
spleen = experiment: In vivo Fluc activity of FlucmRNA-loaded LNP by in vivo imaging, spleen; settings: Balb/c mice, 6 hours; for Fluc activity in the spleen, compared with CL4F6: 0.1 mg mRNA/kg, versus LNP comprising CL4F6 (Tables 5 and 6); for Fluc Activity in spleen: FlucmRNA-loaded LNP i.v. 0.1 mg mRNA/kg
Protocol: (§1) Then, each prepared FlucmRNA-loaded lipid nanoparticles were administered to Balb/c mice (Charles River Laboratories Japan, Inc., 7 weeks old, female) and in vivo gene expression activity was examined. Specifically, each FlucmRNA-loaded lipid nanoparticles were intravenously administered to Balb/c mice at 0.1 mg mRNA/kg, and Fluc activities in the liver and spleen at 6 hours later were measured. Fluc activity was measured by in vivo imaging system (Perkin Elmer, IVIS200) after administration of VivoGlo Luciferin, In Vivo Grade (Promega, P1041) dissolved with PBS to 15 mg/mL, via tail vein at a dose of 1.5 mg per mouse. The unit of Fluc activity is the emission intensity per unit area (Avg Radiance [p/s/cm2/sr]) at the maximum emission wavelength of about 560 nm. The results of measurement of the Fluc activity (Avg Radiance [p/s/cm2/sr]) in the liver and spleen of mice administered each FlucmRNA-loaded lipid nanoparticles are shown in Tables 5-7.

F7 = experiment: In vivo F7 knockdown, plasma F7 enzyme activity (BIOPHEN FVII), Balb/c mice; settings: for F7 enzyme activity (%): untreated mice as 100%; for knockdown activity, compared with MC3: F7siRNA-loaded LNP, versus LNP comprising MC3
Protocol: Then, each prepared F7siRNA-loaded lipid nanoparticles were administered to Balb/c mice (Charles River Laboratories Japan, Inc., 5 weeks old, female) and in vivo F7 knockdown activity was examined. Specifically, BALB/c mice were intravenously administered F7siRNA-loaded lipid nanoparticles comprising the lipids described in Table 9 at 0.025 mg siRNA/kg and F7siRNA-loaded lipid nanoparticles comprising the lipids described in Tables 10 and 11 at 0.025 mg siRNA/kg, and the plasma F7 enzyme activity at 24 hours later was measured using BIOPHEN FVII (Biophen, A221304). Relative plasma F7 enzyme activity (%) of mice administered each F7siRNA-loaded lipid nanoparticles was calculated using plasma F7 enzyme activity of untreated mice as 100%. Furthermore, the ratio was calculated using the relative plasma F7 enzyme activity (%) of mice administered MC3-comprising F7siRNA-loaded lipid nanoparticles as 1. The results of measurement of CL4F6 derivative nanoparticles are shown in Tables 9 and 10, and results of measurement of CL15F6 derivative nanoparticles in Table 11.

[1] = Storage stability of FlucmRNA-loaded LNP at −80, 5, 25 and 40° C.; type: physicochemical; settings: for period for which quality remained good, −80° C.: maximum storage period 1 week; for period for which quality remained good, 5° C. / period for which quality remained good, 25° C. / period for which quality remained good, 40° C. (weeks) / period for which quality remained good, 40° C. (days): maximum storage period 5 weeks
Protocol: Lipid nanoparticles were allowed to stand at each temperature of −80° C., 5° C., 25° C., and 40° C., and after keeping for each period of time, average particle size, PDI, and nucleic acid encapsulation rate were measured. Lipid nanoparticles which satisfy following all three conditions were defined that the quality was remained well: the average particle size is maintained within +/−20 nm based on the date of LNP preparation; PDI remains high uniformity with a value of 0.2 or less; and the nucleic acid encapsulation rate is also maintained at 80% or more. As a result of measuring average particle size, PDI, and nucleic acid encapsulation rate after each FlucmRNA-loaded lipid nanoparticle was allowed to stand at −80° C., 5° C., 25° C., and 40° C. respectively and kept for each period of time, periods of time defined as the quality of the lipid nanoparticles was remained well are shown in Tables 13 and 14. The lipid nanoparticles which remain in good quality with standing at 5° C. for one week or more can be evaluated as having excellent stability.

[2] = Average particle size (ζ-Average) and PDI by dynamic light scattering (Zetasizer Nano ZSP); type: physicochemical
Protocol: The average particle size (ζ-Average) and PDI in PBS(−) of lipid nanoparticles were measured using “Zetasizer Nano ZSP”, an analyzer utilizing dynamic light scattering (manufactured by Malvern).
Measurement of average particle size and PDI of the lipid nanoparticles were carried out with the same method as the measurement of average particle size of mRNA-LNP.
The average particle size (ζ-Average) and PDI in PBS (−) of lipid nanoparticles were measured using “Zetasizer Nano ZSP”, an analyzer utilizing dynamic light scattering (manufactured by Malvern).

liver = experiment: In vivo Fluc activity of FlucmRNA-loaded LNP by in vivo imaging, liver; settings: Balb/c mice, 6 hours; for Fluc Activity in liver: FlucmRNA-loaded LNP i.v. 0.1 mg mRNA/kg
Protocol: as §1

[3] = siRNA/mRNA encapsulation rate by Ribogreen reagent (section IV); type: physicochemical; settings: for % siRNA encapsulation: F7siRNA-loaded LNP, 50:10:38.5:1.5, N/P ratio 6; for % mRNA encapsulation: FlucmRNA-loaded LNP, 50:10:38.5:1.5
Protocol: The encapsulation rates of siRNA and mRNA of lipid nanoparticles were measured with Ribogreen reagent. A solution diluted with TE buffer solution was arranged so that lipid nanoparticle concentration as nucleic acid concentration to be 8 μg/mL, as a solution for measuring nanoparticle surface nucleic acid concentration. In addition, a solution for measuring total nucleic acid concentration was arranged so that lipid nanoparticle concentration as nucleic acid concentration to be 1.2 μg/mL, which is 1% (w/w) concentration of X-triton100, by adding X-triton100. For 100 μL of each solution, 100 μL of Ribogreen (registered trademark) reagent (Quant-iT™ RiboGreen™ RNA Reagent, manufactured by Thermofisher Scientific) was mixed well in the wells of 96-well microplate (black, made of polystyrene, flat bottom, manufactured by Corning), and the fluorescence intensity at an excitation wavelength of 485 nm and a measurement wavelength of 528 nm was measured with a microplate reader. Nucleic acid concentration was calculated by calibration curve created by measuring the fluorescence intensity of nucleic acid solution containing 1% X-triton100 (nucleic acid concentration: 0-2.5 μg/mL) as same as aforementioned. Nucleic acid encapsulation rate of each lipid nanoparticle was calculated by the following formula: Encapsulation rate %=(nucleic acid concentration in solution for measuring total nucleic acid concentration (μg/mL)−nucleic acid concentration in solution for measuring nanoparticle surface nucleic acid concentration (μg/mL))/nucleic acid concentration in solution for measuring total nucleic acid concentration (μg/mL)×100. <Results>
The encapsulation rate of mRNA of lipid nanoparticles was measured using Ribogreen (manufactured by life technologies).

[4] = i.v. 0.025 mg siRNA/kg, plasma at 24 hours
[5] = F7siRNA-loaded LNP, 50:10:38.5:1.5, N/P ratio 6
[6] = FlucmRNA-loaded LNP, 50:10:38.5:1.5
[7] = FlucmRNA-loaded LNP, lipid:DSPC:cholesterol:DMG-PEG2K 50:10:38.5:1.5

SMILES	Fluc activity in the spleen, compared with CL4F6 (spleen)	Fluc Activity in spleen (spleen)	F7 enzyme activity (%) (F7; [4])	period for which quality remained good, −80° C. [1] [week]	period for which quality remained good, 5° C. [1] [weeks]	period for which quality remained good, 25° C. [1] [weeks]	period for which quality remained good, 40° C. (weeks) [1]	PDI [2, 5]	ζ-Average (nm) [2, 5] [nm]	PDI [2, 6]	ζ-Average (nm) [2, 7] [nm]	Fluc activity in the liver, compared with CL4F6 (liver; 0.1 mg mRNA/kg, versus LNP comprising CL4F6 (Tables 5 and 6))	Fluc Activity in liver (liver)	% siRNA encapsulation [3] [%]	% mRNA encapsulation [3] [%]	period for which quality remained good, 40° C. (days) [1] [day days]	knockdown activity, compared with MC3 (F7)	F7 enzyme activity (Ratio using MC3 as 1) (F7; i.v. 0.025 mg siRNA/kg, plasma at 24 hours, relative plasma F7 activity of MC3 LNP as 1)
CCCCCCC(CCCCCC)C(=O)OCCCCCCC(O)(CCCCCCOC(=O)C(CCCCCC)CCCCCC)CCCCN(CCC)CCC [CL4F 8-6]	higher Fluc activity	9.58E+06 Avg Radiance [p/s/cm2/sr]	3	1	5	5	1 week weeks	0.010	99.72	0.022	88.78	higher Fluc activity	1.80E+08 Avg Radiance [p/s/cm2/sr]	100.0	99.4			
CCCCCCCC(CCC)C(=O)OCCCCCCC(O)(CCCCCCOC(=O)C(CCC)CCCCCCC)CCCCN(CCC)CCC (stereo not shown) [CL4F 9-3]	higher Fluc activity	8.17E+06 Avg Radiance [p/s/cm2/sr]	11.7	1	5	5		0.022	114.40	0.030	102.80		2.96E+07 Avg Radiance [p/s/cm2/sr]	99.9	99.6	0		
CCCCCCCC(CCCCC)C(=O)OCCCCCCC(O)(CCCCCCOC(=O)C(CCCCC)CCCCCCC)CCCCN(CCC)CCC (stereo not shown) [CL4F 9-5]	higher Fluc activity	9.53E+06 Avg Radiance [p/s/cm2/sr]		1	5	5	5 weeks	0.032	99.72	0.048	89.41		6.84E+07 Avg Radiance [p/s/cm2/sr]	99.9	99.0		higher knockdown activity	0.43
CCCCCCCCC(CC)C(=O)OCCCCCCC(O)(CCCCCCOC(=O)C(CC)CCCCCCCC)CCCCN(CCC)CCC (stereo not shown) [CL4F 10-2]	higher Fluc activity	6.40E+06 Avg Radiance [p/s/cm2/sr]	11.4	0	5	1		0.024	115.60	0.068	93.60		3.02E+07 Avg Radiance [p/s/cm2/sr]	99.6	98.6	0		
CCCCCCCCC(CCCC)C(=O)OCCCCCCC(O)(CCCCCCOC(=O)C(CCCC)CCCCCCCC)CCCCN(CCC)CCC (stereo not shown) [CL4F 10-4]	higher Fluc activity	6.70E+06 Avg Radiance [p/s/cm2/sr]	1.7	1	5	5		0.021	95.37	0.041	84.92		1.20E+08 Avg Radiance [p/s/cm2/sr]	100.1	99.8	0	higher knockdown activity	
CCCCCCCCC(CCCCCCC)C(=O)OCCCCCCC(O)(CCCCCCOC(=O)C(CCCCCCC)CCCCCCCC)CCCCN(CCC)CCC (stereo not shown) [CL4F 10-7]		2.03E+06 Avg Radiance [p/s/cm2/sr]	4.1	1	5	5	5 weeks	0.013	89.34	0.039	79.68		1.19E+08 Avg Radiance [p/s/cm2/sr]	100.1	99.8			
CCCCCCCCC(CCCCCCCC)C(=O)OCCCCCCC(O)(CCCCCCOC(=O)C(CCCCCCCC)CCCCCCCC)CCCCN(CCC)CCC [CL4F 10-8]		8.04E+05 Avg Radiance [p/s/cm2/sr]	8.1	1	5	5	5 weeks	0.007	91.44	0.021	81.99		5.14E+07 Avg Radiance [p/s/cm2/sr]	99.9	99.8			
CCCCCCCCCC(CCCCC)C(=O)OCCCCCCC(O)(CCCCCCOC(=O)C(CCCCC)CCCCCCCCC)CCCCN(CCC)CCC (stereo not shown) [CL4F 11-5]		1.03E+06 Avg Radiance [p/s/cm2/sr]	4.3	1	5	5	1 week weeks	0.012	89.72	0.019	81.81		4.50E+07 Avg Radiance [p/s/cm2/sr]	100.1	99.6			
